Results as given in paper PMC12851022, “Targeting the Spliceosomal Protein USP39 Through Allosteric Ligands and PROTAC‐Induced Degradation” (Angewandte Chemie (International Ed. in English), 2025).

Assays:
USP39-OFP [1] = target: T1, USP39-OFP (Homo sapiens, UniProt P40337+Q53GS9); assay: Fluorescence degradation assay in HEK293T cells co-expressing USP39-OFP and VHL_WT-EGFP; type: cell-based; conditions: VHL WT (VHL_WT-EGFP co-expressed)
T1 construct: expressed in transfected cells
Method: (§1) Figure 4 Effective and selective degradation of USP39 in cells by USP39‐PROTACs. a) Optimization of cellular degradation assay in HeLa cells transiently overexpressing USP39‑OFP (HeLa‐USP39‐OFP). […] GAPDH was used as a loading control. g) Proteasome dependence of USP39 degradation. HeLa‐WT cells were co‐treated with MG132 (0.25 µM) or DMSO control and USP39_PROTAC_V1 for 24 h ST. h) Representative immunofluorescence images of HeLa‐USP39_OFP cells treated with DMSO (NT), USP39_PROTAC_V1 (10 nM, 24 h), or USP39_PROTAC_V1 + MLN4924 (1 µM), stained for USP39 (red) and nuclei (blue). i) Quantification of USP39 degradation by fluorescence microscopy, showing DC50 values of 13 nM without MLN4924 (orange) and 204 nM with MLN4924 (blue) (MLN4924 = 5 uM). j) VHL‐dependence of PROTAC‐induced degradation. Schematic of PROTAC recruitment to VHL via hydroxyl‐proline interactions (His115, Ser111). Western blot comparing USP39 levels in VHL WT and VHL KO HeLa cells treated with USP39_PROTAC_V1. k) Fluorescence assay in HEK293T cells co‐expressing USP39‑OFP and either VHL_WT‑EGFP or VHL_m (Δ91–121). […] Comparison of untreated (NT) and USP39_PROTAC_V1–treated (10 nM, 24 h) samples. Percent spliced/unspliced (S/U) ratios are shown, reflecting USP39‐deficiency–associated splicing defects. Data represent at least four independent biological replicates. […]

USP39-OFP [2] = target: T2, USP39-OFP (Homo sapiens, UniProt Q53GS9); assay: Fluorescence degradation assay in HEK293T cells co-expressing USP39-OFP and VHL_m (Δ91–121); type: cell-based
T2 construct: expressed in transfected cells; host or cells: HEK293T
T2 sequence (Q53GS9 1-565): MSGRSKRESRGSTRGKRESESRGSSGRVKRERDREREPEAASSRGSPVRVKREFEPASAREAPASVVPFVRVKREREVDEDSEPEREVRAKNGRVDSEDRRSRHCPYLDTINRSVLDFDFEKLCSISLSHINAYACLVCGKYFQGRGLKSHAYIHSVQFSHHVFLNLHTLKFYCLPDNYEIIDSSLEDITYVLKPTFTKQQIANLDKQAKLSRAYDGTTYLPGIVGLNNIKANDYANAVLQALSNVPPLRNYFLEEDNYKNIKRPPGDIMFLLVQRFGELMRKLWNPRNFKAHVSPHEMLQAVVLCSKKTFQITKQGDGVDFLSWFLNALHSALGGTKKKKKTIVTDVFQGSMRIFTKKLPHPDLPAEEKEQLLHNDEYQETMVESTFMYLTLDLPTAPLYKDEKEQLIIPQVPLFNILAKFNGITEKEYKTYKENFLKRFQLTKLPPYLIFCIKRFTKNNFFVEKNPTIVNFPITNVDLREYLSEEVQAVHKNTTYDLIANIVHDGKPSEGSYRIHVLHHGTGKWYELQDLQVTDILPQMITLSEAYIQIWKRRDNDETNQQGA
Method: as §1

[3] = system: 5′ splice site usage in exon 1 of ZNF414 and CRK; assay: RT-PCR analysis of alternative splicing in ZNF414 and CRK transcripts; type: cell-based, human; conditions: 10 nM, 24 h
Method: as §1

USP39 [4] = target: T3, USP39 (Homo sapiens, UniProt Q53GS9); assay: Western blot of USP39 levels in HeLa-WT cells; type: cell-based; parameters: endogenous in cells; host or cells: HeLa-WT; conditions: MG132 0.25 µM, 24 h ST
T3 sequence (Q53GS9 1-565): T2 sequence (Q53GS9 1-565)
Method: as §1

USP39 [5] = target: T3, USP39; assay: Western blot of USP39 levels in VHL KO HeLa cells; type: cell-based; parameters: endogenous in cells; host or cells: VHL-KO HeLa
Method: as §1

T1 sequence (P40337 whole entry, one chain of several): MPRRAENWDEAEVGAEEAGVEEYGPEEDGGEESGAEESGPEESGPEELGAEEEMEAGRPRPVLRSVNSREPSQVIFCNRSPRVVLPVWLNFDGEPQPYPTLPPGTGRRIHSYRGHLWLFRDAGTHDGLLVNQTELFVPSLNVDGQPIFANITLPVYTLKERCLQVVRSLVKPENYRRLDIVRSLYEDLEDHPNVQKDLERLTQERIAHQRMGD
T1 sequence (Q15370 whole entry partner, one chain of several): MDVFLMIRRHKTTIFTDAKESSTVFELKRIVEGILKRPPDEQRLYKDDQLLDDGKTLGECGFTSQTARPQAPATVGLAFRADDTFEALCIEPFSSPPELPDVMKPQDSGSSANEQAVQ
T1 sequence (Q15369 whole entry partner, one chain of several): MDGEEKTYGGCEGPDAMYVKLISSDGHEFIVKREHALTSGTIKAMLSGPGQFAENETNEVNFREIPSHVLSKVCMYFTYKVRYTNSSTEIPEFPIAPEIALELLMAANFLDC

Question: What does the source list for Cc1ncsc1-c1ccc(CNC(=O)C2CC(O)CN2C(=O)C(NC(=O)CCOCCOCCOCCNC(=O)c2csc(Nc3ccc(Cl)cc3)n2)C(C)(C)C)cc1 (centres unmarked) [USP39_PROTAC_V1]?
Answer: DC50 (USP39-OFP [1]): 1 nM; Fold reduction of degradation effect in VHL_m versus VHL_WT cells (USP39-OFP [2]): more than 80 fold; Cryptic 5′ splice site usage in ZNF414 and CRK [3]: reproduced these cryptic splicing events; USP39 degradation under co-treatment with proteasome inhibitor MG132 (USP39 [4]): markedly suppressed USP39 degradation; USP39 degradation in VHL-KO HeLa cells (USP39 [5]): significantly attenuated
